The source of these data is ChEMBL document CHEMBL5712891, “Inhibition of BET bromodomain-dependent XIAP and FLIP expression sensitizes KRAS-mutated NSCLC to pro-apoptotic agents” (Cell Death Dis, 2016).

A word on the T/C: it is the result in the treated group divided by that in the control group, in per cent.

Series [1] has as its system DV-90. The series can be described thus: Induction of apoptosis in human DV-90 cells assessed as early apoptotic cells at 2.5 uM for 24 hrs by annexin V-PI staining based flow cytometric analysis (reference value: 1.7%). It is filed as functional. (In general: A flow cytometer gives signals particle by particle.)
Series [2] concerns NCI-H1373. The series can be described thus: Induction of TRAIL dependent apoptosis in human NCI-H1373 cells assessed as early apoptotic cells at 1 uM by annexin V-PI staining based flow cytometric analysis (reference value: 0.5%). It is filed as functional.
For series [3], the system named is NCI-H1373. Nature of the series: Induction of cell cycle arrest in human NCI-H1373 cells assessed as accumulation of cells at S phase at 0.1 uM for 24 hrs by Click-iT EdU Alexa Fluor 647 flow cytometric assay kit analysis (reference value: 45%). The class given is functional.
The test system of series [4] is NCI-H460. Nature of the series: Downregulation of c-MYC protein expression level in human NCI-H460 cells at 1 uM for 24 hrs by […] analysis. The class given is functional, cell-based. In general terms: Real-time PCR tracks product formation cycle by cycle.
For series [5], the system named is A549. The series can be described thus: Antitumor activity against human A549 cells assessed as test to control tumor ratio administered at 80 mg/kg, ip for 7 days along with cisplatin for 5 days follwed by compound treatment for 14 days relative to control. The class given is functional. The settings on record: time 7 day.
Series [6] concerns A549. Nature of the series: Induction of cell cycle arrest in human A549 cells assessed as accumulation of cells at G0/G1 phase at 0.1 uM for 24 hrs by Click-iT EdU Alexa Fluor 647 flow cytometric assay kit analysis (reference value: 61%). It is filed as functional.
Series [7] has as its system NCI-H1373. Nature of the series: Induction of cell cycle arrest in human NCI-H1373 cells assessed as accumulation of cells at G0/G1 phase at 0.1 uM for 24 hrs by Click-iT EdU Alexa Fluor 647 flow cytometric assay kit analysis (reference value: 40%). The class given is functional.
Series [8] has as its system NCI-H1373. The series can be described thus: Induction of TRAIL dependent apoptosis in human NCI-H1373 cells by annexin V-PI staining based flow cytometric analysis. It is filed as functional, cell-based.
In series [9] the test system is DV-90. The series can be described thus: Downregulation of C-MYC mRNA expression level in human DV-90 cells at 0.1 to 1 uM for 24 hrs by qRT-PCR analysis. It is filed as functional, cell-based. The settings on record: dose 0.1-1 µM.
Series [10] relates to NCI-H2030. Nature of the series: Downregulation of c-MYC protein level in human NCI-H2030 cells at 100 to 5000 nM upto 24 hrs by Western blot analysis. The settings on record: dose 100-5000 nM. It is filed as functional, cell-based. Background: Immunoblotting shows a protein as a band on a membrane.
Series [11] relates to NCI-H1373. The series can be described thus: Induction of apoptosis in human NCI-H1373 cells assessed as early apoptotic cells at 2.5 uM for 24 hrs by annexin V-PI staining based flow cytometric analysis (reference value: 0.6%). It is filed as functional.
A short description of series [12]: Toxicity in SCID mouse xenografted with human A549 cells assessed as body weight loss administered at 80 mg/kg, ip for 7 days along with cisplatin for 5 days follwed by compound treatment for 14 days relative to control. The settings on record: in vivo, 672 h, time 28 day. The class given is organism-based.
Series [13] deals with NCI-H358. Nature of the series: Downregulation of c-MYC protein expression level in human NCI-H358 cells at 1 uM for 24 hrs by […] analysis. It is filed as functional, cell-based.
The subject of a further series is NCI-H1792. Nature of the series: Downregulation of XIAP mRNA expression level in human NCI-H1792 cells at 0.1 to 1 uM for 24 hrs by qRT-PCR analysis. The class given is functional, cell-based. The settings on record: dose 0.1-1 µM.
Series [14] concerns NCI-H460. The series can be described thus: Induction of apoptosis in human NCI-H460 cells assessed as late apoptotic cells at 2.5 uM for 24 hrs by annexin V-PI staining based flow cytometric analysis (reference value: 3.0%). It is filed as functional.
Series [15] concerns A549. Nature of the series: Induction of apoptosis in human A549 cells assessed as viable cells at 1 uM by annexin V-PI based flow cytometric analysis (reference value: 95.7%). The settings on record: read-out: Activity. It is filed as functional.
Series [16] has as its system NCI-H2030. The series can be described thus: Downregulation of FLIP mRNA expression level in human NCI-H2030 cells at 0.1 to 1 uM for 24 hrs by qRT-PCR analysis. The class given is functional, cell-based. The settings on record: dose 0.1-1 µM.
For series [17], the system named is A549. Nature of the series: Induction of apoptosis in human A549 cells assessed as early apoptotic cells at 1 uM by annexin V-PI based flow cytometric analysis (reference value: 0.2%). It is filed as functional.
Series [18] deals with NCI-H1373. The series can be described thus: Induction of apoptosis in human NCI-H1373 cells assessed as viable cells at 2.5 uM for 24 hrs by annexin V-PI staining based flow cytometric analysis (reference value: 77.7%). It is filed as functional. The settings on record: read-out: Activity.
In series [19] the test system is DV-90. Nature of the series: Induction of cell cycle arrest in human DV-90 cells assessed as accumulation of cells at G2/M phase at 0.25 uM for 24 hrs by Click-iT EdU Alexa Fluor 647 flow cytometric assay kit analysis (reference value: 24%). The class given is functional.
Series [20] has as its system NCI-H358. The series can be described thus: Antiproliferative activity against human NCI-H358 cells at 500 to 2500 nM in presence of TNF by cell titre glo assay. The settings on record: dose 500-2500 nM. It is filed as functional, cell-based.
The test system of series [21] is NCI-H1373. The series can be described thus: Downregulation of c-MYC protein level in human NCI-H1373 cells upto 24 hrs by Western blot analysis. The settings on record: dose 100-5000 nM. The class given is functional, cell-based.
Series [22] has as its system NCI-H1373. Nature of the series: Induction of cell cycle arrest in human NCI-H1373 cells assessed as accumulation of cells at G0/G1 phase at 1 uM for 24 hrs by Click-iT EdU Alexa Fluor 647 flow cytometric assay kit analysis (reference value: 48%). The class given is functional.
Series [23] concerns NCI-H1373. Nature of the series: Induction of cell cycle arrest in human NCI-H1373 cells assessed as accumulation of cells at G0/G1 phase at 0.1 uM for 24 hrs by Click-iT EdU Alexa Fluor 647 flow cytometric assay kit analysis (reference value: 48%). It is filed as functional.
In series [24] the test system is NCI-H1373. The series can be described thus: Induction of cell cycle arrest in human NCI-H1373 cells assessed as accumulation of cells at G0/G1 phase at 0.5 uM for 24 hrs by Click-iT EdU Alexa Fluor 647 flow cytometric assay kit analysis (reference value: 45%). The class given is functional.
The test system of series [25] is DV-90. Nature of the series: Induction of cell cycle arrest in human DV-90 cells assessed as accumulation of cells at G2/M phase at 1 uM for 24 hrs by Click-iT EdU Alexa Fluor 647 flow cytometric assay kit analysis (reference value: 25%). It is filed as functional.
Series [26] concerns DV-90. Nature of the series: Induction of cell cycle arrest in human DV-90 cells assessed as accumulation of cells at G0/G1 phase at 1 uM for 24 hrs by Click-iT EdU Alexa Fluor 647 flow cytometric assay kit analysis (reference value: 45%). The class given is functional.
In series [27] the test system is DV-90. Nature of the series: Induction of cell cycle arrest in human DV-90 cells assessed as accumulation of cells at G2/M phase at 0.5 uM for 24 hrs by Click-iT EdU Alexa Fluor 647 flow cytometric assay kit analysis (reference value: 21%). The class given is functional.
In series [28] the test system is NCI-H1373. Nature of the series: Induction of apoptosis in human NCI-H1373 cells assessed as early apoptotic cells at 2.5 uM for 24 hrs by annexin V-PI staining based flow cytometric analysis (reference value: 1.7%). It is filed as functional.
For series [29], the system named is DV-90. Nature of the series: Induction of apoptosis in human DV-90 cells assessed as early apoptotic cells at 0.5 uM for 48 hrs by annexin V-PI staining based flow cytometric analysis (reference value: 1.0%).
In series [30] the test system is A549. Nature of the series: Induction of apoptosis in human A549 cells assessed as viable cells at 0.5 uM for 24 hrs by annexin V-PI staining based flow cytometric analysis (reference value: 97.7%). It is filed as functional. The settings on record: read-out: Activity.
The subject of series [31] is NCI-H1373. The series can be described thus: Induction of apoptosis in human NCI-H1373 cells assessed as viable cells at 2.5 uM for 24 hrs by annexin V-PI staining based flow cytometric analysis (reference value: 71.6%). It is filed as functional. The settings on record: read-out: Activity.
For series [32], the system named is A549. Nature of the series: Induction of apoptosis in human A549 cells assessed as late apoptotic cells at 0.5 uM for 24 hrs by annexin V-PI staining based flow cytometric analysis (reference value: 1.2%). It is filed as functional.

The source made the active and inactive calls. The rule behind the calls is not given here.

On to `Cc1sc2c(c1C)C(c1ccc(Cl)cc1)=N[C@@H](CC(=O)OC(C)(C)C)c1nnc(C)n1-2`, for which the Activity turned out to be 1.9% in the series with DV-90 [1]; 2.4% in the series with NCI-H1373 [2]; 36% in the series with NCI-H1373 [3]; 61% in the series with A549 [6]; 44% in the series on NCI-H1373 [7]; 2.9% with NCI-H1373 [11]. Also, the Activity with NCI-H460 [14] is 5.5%; with A549 [17], 0.1%; in the series on DV-90 [19] it was 31%; with NCI-H1373 [21], “Dose-Dependent Effect”. The result in the series with NCI-H460 [4], with NCI-H1373 [8], in the series with DV-90 [9], with NCI-H358 [13], in the series with NCI-H1792 and in the series with NCI-H2030 [16] was Active. Further, the outcome with NCI-H358 [20] was Active. Also, the T/C amounted to 41% with A549 [5] and 10% in [12]. Further, the outcome in the series on NCI-H2030 [10] was inactive. In addition, the viability at 1 µM in the series on A549 [15] was determined as 98%. Also, the viability at 2.5 µM with NCI-H1373 [18] turned out to be 58%.
As for `CCNC(=O)C[C@@H]1N=C(c2ccc(Cl)cc2)c2cc(OC)ccc2-n2c(C)nnc21` [MOLIBRESIB], the Activity was 76% in the series on NCI-H1373 [22]; 47% with NCI-H1373 [23]; 47% in the series with NCI-H1373 [24]; 27% with DV-90 [25]; 50% in the series with DV-90 [26].
With `Cc1sc2c(c1C)C(c1ccc(Cl)cc1)=N[C@@H](CC(=O)Nc1ccc(O)cc1)c1nnc(C)n1-2` [BIRABRESIB], the Activity with DV-90 [27] is given as 25%; in the series with NCI-H1373 [28], 1.8%; with DV-90 [29], 2.8%; in the series on A549 [32], 1.1%. The viability at 0.5 µM in the series with A549 [30] stood at 98.1%. Moreover, the viability at 2.5 µM in the series with NCI-H1373 [31] was found to be 56.2%.
